System: Arabidopsis seedlings
Experiment: Dose-response of imazethapyr spray on 7-day-old Arabidopsis seedlings (foliar damage)
Format: in vivo, Arabidopsis thaliana
Settings: repeated dose-response experiments, spray application, scored for foliar damage at 16 days post-treatment
Method: EMS-mutagenized M2 generation Arabidopsis thaliana (cv. Col-0) seeds were obtained from Lehle Seeds, Round Rock, Texas under catalog number M2E02-02. Flats were seeded to provide approximately one million ems-mutagenized seeds. The seeded flats were then watered by sub-irrigation, covered with transparent plastic domes, and maintained at 4° C. and 70% relative humidity for 4 days in the dark. At the end of this period the growth chamber conditions were reset to 21° C., 70% relative humidity under a 16 hour photoperiod, with soil-surface light intensity adjusted to approximately 150 uEinsteins/m^2/s. The flats were maintained under these conditions for seven days prior to imazethapyr, an imidazolinone treatments. The plastic domes were removed 2 days before the treatments to acclimate the plants to ambient humidity.
Based on repeated dose-response experiments using 7-day-old Arabidopsis seedlings grown under the conditions described above, it was determined that the I100 for imazethapyr was approximately 0.035 lbs. active ingredient per acre (a.i./acre). EMS-mutagenized seedlings were screened at a rate equivalent to approximately twice the 1100 value, or 0.07 lbs. a.i./acre. […] Seedlings were then returned to the growth chamber, and scored for foliar damage at 16 days post-treatment.

Q: For `CCc1cnc(C2=NC(C)(C(C)C)C(=O)N2)c(C(=O)O)c1` (stereo not shown) [imazethapyr, 2-[4,5-dihydro-4-methyl-4-(1-methylethyl)-5-oxo-1H-imidazol-2-yl]-5-ethyl-3-pyridinecarboxylic acid], which I100 is on record?
A: Its I100 is “approximately 0.035 lbs. active ingredient per acre”.
